Measurements: ChEMBL document CHEMBL1201862, “PubChem BioAssay data set” (2004)
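Growth conditions: 96-well plates. Treatment: test compound, 48 hours, 5 concentrations. Analysis: linear interpolation between bracketing concentrations; unreached endpoints set to highest concentration. At the GI50, growth is halved.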 Calls of active or inactive are those of the source. Cut-off read from the data, not from the text of the source: active = GI50 up to about 1.1 µM and inactive = higher.

What was measured:
Assay in all cases: inhibition of tumour cell growth, NCI panel, 48 h
[1] = test system: HCT-116
[2] = test system: HL-60
[3] = test system: K562
[4] = test system: MCF7
[5] = test system: OVCAR-8
[6] = test system: SR
[7] = test system: UO-31
[8] = test system: 786-0
[9] = test system: A498
[10] = test system: A549
[11] = test system: ACHN
[12] = test system: CAKI-1
[13] = test system: CCRF-CEM
[14] = test system: COLO 205
[15] = test system: DU-145
[16] = test system: EKVX
[17] = test system: HCC 2998
[18] = test system: HCT-15
[19] = test system: HOP-62
[20] = test system: HOP-92
[21] = test system: HT-29
[22] = test system: Hs-578T
[23] = test system: IGROV-1
[24] = test system: KM12
[25] = test system: LOX IMVI
[26] = test system: M14
[27] = test system: MDA-MB-231
[28] = test system: MDA-MB-435
[29] = test system: MOLT-4
[30] = test system: Malme-3M
[31] = test system: NCI-H23
[32] = test system: NCI-H460
[33] = test system: NCI-H522
[34] = test system: NCI/ADR-RES
[35] = test system: OVCAR-3
[36] = test system: OVCAR-4
[37] = test system: OVCAR-5
[38] = test system: PC-3
[39] = test system: RPMI-8226
[40] = test system: SF-268
[41] = test system: SF-295
[42] = test system: SF-539
[43] = test system: SK-MEL-28
[44] = test system: SK-MEL-2
[45] = test system: SK-MEL-5
[46] = test system: SN12C
[47] = test system: SNB-19
[48] = test system: SNB-75
[49] = test system: SW-620
[50] = test system: T47D
[51] = test system: TK-10
[52] = test system: U-251
[53] = test system: UACC-257
[54] = test system: UACC-62
[55] = test system: NCI-H226
[56] = test system: RXF 393
[57] = test system: SK-OV-3
[58] = test system: MDA-N

## CC(=O)c1ccc(NC(=O)CSc2nc(C)nc3c2sc(=S)n3-c2ccccc2)cc1
[1]
  GI50: 3 µM (inactive)
[2]
  GI50: 2.99 µM (inactive)
[3]
  GI50: > 10 µM (inactive)
[4]
  GI50: > 10 µM (inactive)
[5]
  GI50: > 10 µM (inactive)
[6]
  GI50: 2.2 µM (inactive)
[7]
  GI50: 9.42 µM (inactive)

## CCOC(=O)C1C(c2ccc3c(c2)OCO3)c2c(n[nH]c2O)CC1(O)OCC (stereo not drawn)
[8]
  GI50: > 100 µM (inactive)
[9]
  GI50: > 100 µM (inactive)
[10]
  GI50: > 100 µM (inactive)
[11]
  GI50: > 100 µM (inactive)
[12]
  GI50: > 100 µM (inactive)
[13]
  GI50: > 100 µM (inactive)
[14]
  GI50: > 100 µM (inactive)
[15]
  GI50: > 100 µM (inactive)
[16]
  GI50: > 100 µM (inactive)
[17]
  GI50: > 100 µM (inactive)
[1]
  GI50: > 100 µM (inactive)
[18]
  GI50: > 100 µM
[2]
  GI50: > 100 µM (inactive)
[19]
  GI50: > 100 µM (inactive)
[20]
  GI50: > 100 µM (inactive)
[21]
  GI50: > 100 µM (inactive)
[22]
  GI50: > 100 µM (inactive)
[23]
  GI50: > 100 µM (inactive)
[24]
  GI50: > 100 µM (inactive)
[25]
  GI50: > 100 µM (inactive)
[26]
  GI50: > 100 µM (inactive)
[4]
  GI50: > 100 µM (inactive)
[27]
  GI50: > 100 µM (inactive)
[28]
  GI50: > 100 µM (inactive)
[29]
  GI50: > 100 µM (inactive)
[30]
  GI50: > 100 µM (inactive)
[31]
  GI50: > 100 µM (inactive)
[32]
  GI50: > 100 µM (inactive)
[33]
  GI50: > 100 µM (inactive)
[34]
  GI50: > 100 µM (inactive)
[35]
  GI50: > 100 µM (inactive)
[36]
  GI50: > 100 µM (inactive)
[37]
  GI50: > 100 µM (inactive)
[5]
  GI50: > 100 µM (inactive)
[38]
  GI50: > 100 µM (inactive)
[39]
  GI50: > 100 µM (inactive)
[40]
  GI50: > 100 µM (inactive)
[41]
  GI50: > 100 µM (inactive)
[42]
  GI50: > 100 µM (inactive)
[43]
  GI50: > 100 µM (inactive)
[44]
  GI50: > 100 µM (inactive)
[45]
  GI50: > 100 µM (inactive)
[46]
  GI50: > 100 µM (inactive)
[47]
  GI50: > 10 µM (inactive)
[48]
  GI50: > 100 µM (inactive)
[6]
  GI50: > 100 µM (inactive)
[49]
  GI50: > 100 µM (inactive)
[50]
  GI50: > 100 µM (inactive)
[51]
  GI50: > 100 µM (inactive)
[52]
  GI50: > 100 µM (inactive)
[53]
  GI50: > 100 µM (inactive)
[54]
  GI50: > 100 µM (inactive)
[7]
  GI50: > 100 µM (inactive)

## COc1ccc2c3c([nH]c2c1)CCN(Cc1ccccc1)C3
[8]
  GI50: > 10 µM (inactive)
[9]
  GI50: 15.1 µM (inactive)
[10]
  GI50: 62.1 µM (inactive)
[11]
  GI50: 31.3 µM (inactive)
[13]
  GI50: 34.3 µM (inactive)
[14]
  GI50: 18.7 µM (inactive)
[15]
  GI50: > 100 µM (inactive)
[16]
  GI50: 42.8 µM (inactive)
[17]
  GI50: 19.1 µM (inactive)
[1]
  GI50: 24 µM (inactive)
[18]
  GI50: 17.9 µM
[2]
  GI50: 17.5 µM (inactive)
[19]
  GI50: 21.8 µM (inactive)
[20]
  GI50: 4.35 µM (inactive)
[21]
  GI50: 27.2 µM (inactive)
[22]
  GI50: 24.6 µM (inactive)
[23]
  GI50: 73.6 µM (inactive)
[3]
  GI50: 21.4 µM (inactive)
[24]
  GI50: 22 µM (inactive)
[25]
  GI50: 15.8 µM (inactive)
[26]
  GI50: 16.2 µM (inactive)
[4]
  GI50: 17.5 µM (inactive)
[27]
  GI50: 28.9 µM (inactive)
[28]
  GI50: 23.6 µM (inactive)
[29]
  GI50: 24.8 µM (inactive)
[30]
  GI50: 18.7 µM (inactive)
[55]
  GI50: 22.3 µM (inactive)
[31]
  GI50: 42.3 µM (inactive)
[32]
  GI50: 17 µM (inactive)
[34]
  GI50: 31.5 µM (inactive)
[36]
  GI50: 62.8 µM (inactive)
[37]
  GI50: 21 µM (inactive)
[5]
  GI50: 48.3 µM (inactive)
[39]
  GI50: 22.8 µM (inactive)
[56]
  GI50: 18.3 µM (inactive)
[40]
  GI50: > 100 µM (inactive)
[41]
  GI50: 11.5 µM (inactive)
[42]
  GI50: 16.1 µM (inactive)
[43]
  GI50: 18.8 µM (inactive)
[45]
  GI50: 17 µM (inactive)
[57]
  GI50: > 100 µM (inactive)
[46]
  GI50: 34 µM (inactive)
[47]
  GI50: 21.4 µM (inactive)
[48]
  GI50: 37.3 µM (inactive)
[6]
  GI50: 17.4 µM (inactive)
[49]
  GI50: 23.2 µM (inactive)
[50]
  GI50: 19.4 µM (inactive)
[51]
  GI50: 24.4 µM (inactive)
[52]
  GI50: 22.5 µM (inactive)
[53]
  GI50: 19.6 µM (inactive)
[54]
  GI50: 31.8 µM (inactive)
[7]
  GI50: 12.4 µM (inactive)

## COc1ccc2c(c1)c[n+](C)c1c3cc(OC)c(OC)cc3ccc21
[10]
  GI50: 1.54 µM (inactive)
[12]
  GI50: 11.9 µM (inactive)
[14]
  GI50: 1.67 µM (inactive)
[18]
  GI50: 14 µM
[22]
  GI50: 2.05 µM (inactive)
[25]
  GI50: 1.32 µM (inactive)
[27]
  GI50: 1.42 µM (inactive)
[58]
  GI50: 1.6 µM (inactive)
[33]
  GI50: 1.02 µM (active)
[34]
  GI50: > 100 µM (inactive)
[5]
  GI50: 1.22 µM (inactive)
[40]
  GI50: 1.45 µM (inactive)
[46]
  GI50: 1.73 µM (inactive)
[47]
  GI50: 3.21 µM (inactive)
[6]
  GI50: 2.1 µM (inactive)
[49]
  GI50: 1.37 µM (inactive)
[52]
  GI50: 1.02 µM (active)

## COC1(C(C)(C)C)C=C(C(C)(C)C)P(=O)(O)O1 (stereo not drawn)
[8]
  GI50: > 100 µM (inactive)
[9]
  GI50: > 100 µM (inactive)
[10]
  GI50: > 100 µM (inactive)
[11]
  GI50: > 100 µM (inactive)
[12]
  GI50: > 100 µM (inactive)
[14]
  GI50: > 100 µM (inactive)
[15]
  GI50: > 100 µM (inactive)
[16]
  GI50: > 100 µM (inactive)
[17]
  GI50: 15.7 µM (inactive)
[1]
  GI50: > 100 µM (inactive)
[18]
  GI50: > 100 µM
[2]
  GI50: > 100 µM (inactive)
[19]
  GI50: > 100 µM (inactive)
[20]
  GI50: > 100 µM (inactive)
[21]
  GI50: > 100 µM (inactive)
[22]
  GI50: > 100 µM (inactive)
[23]
  GI50: > 100 µM (inactive)
[3]
  GI50: > 100 µM (inactive)
[24]
  GI50: > 100 µM (inactive)
[25]
  GI50: > 100 µM (inactive)
[26]
  GI50: > 100 µM (inactive)
[4]
  GI50: > 100 µM (inactive)
[28]
  GI50: > 100 µM (inactive)
[58]
  GI50: > 100 µM (inactive)
[30]
  GI50: > 100 µM (inactive)
[31]
  GI50: > 100 µM (inactive)
[32]
  GI50: > 100 µM (inactive)
[33]
  GI50: > 100 µM (inactive)
[34]
  GI50: > 100 µM (inactive)
[35]
  GI50: > 100 µM (inactive)
[36]
  GI50: > 100 µM (inactive)
[37]
  GI50: > 100 µM (inactive)
[5]
  GI50: > 100 µM (inactive)
[38]
  GI50: > 100 µM (inactive)
[39]
  GI50: > 100 µM (inactive)
[40]
  GI50: > 100 µM (inactive)
[41]
  GI50: > 100 µM (inactive)
[42]
  GI50: > 100 µM (inactive)
[43]
  GI50: > 100 µM (inactive)
[44]
  GI50: > 100 µM (inactive)
[45]
  GI50: > 100 µM (inactive)
[57]
  GI50: > 100 µM (inactive)
[46]
  GI50: > 100 µM (inactive)
[47]
  GI50: > 100 µM (inactive)
[48]
  GI50: > 100 µM (inactive)
[6]
  GI50: > 100 µM (inactive)
[49]
  GI50: > 100 µM (inactive)
[50]
  GI50: 1.36 µM (inactive)
[51]
  GI50: > 100 µM (inactive)
[52]
  GI50: > 100 µM (inactive)
[53]
  GI50: > 100 µM (inactive)
[54]
  GI50: > 100 µM (inactive)

## COc1cc2ccc3ccncc3c2cc1OC
[8]
  GI50: > 10 µM (inactive)
[10]
  GI50: > 10 µM (inactive)
[11]
  GI50: > 10 µM (inactive)
[12]
  GI50: > 10 µM (inactive)
[13]
  GI50: > 10 µM (inactive)
[14]
  GI50: > 10 µM (inactive)
[19]
  GI50: > 10 µM (inactive)
[23]
  GI50: > 10 µM (inactive)
[3]
  GI50: > 10 µM (inactive)
[26]
  GI50: > 10 µM (inactive)
[4]
  GI50: > 10 µM (inactive)
[28]
  GI50: > 10 µM (inactive)
[29]
  GI50: > 10 µM (inactive)
[30]
  GI50: > 10 µM (inactive)
[31]
  GI50: > 10 µM (inactive)
[32]
  GI50: > 10 µM (inactive)
[34]
  GI50: > 10 µM (inactive)
[36]
  GI50: > 10 µM (inactive)
[37]
  GI50: > 10 µM (inactive)
[39]
  GI50: > 10 µM (inactive)
[56]
  GI50: > 10 µM (inactive)
[40]
  GI50: > 10 µM (inactive)
[43]
  GI50: > 10 µM (inactive)
[44]
  GI50: > 10 µM (inactive)
[45]
  GI50: > 10 µM (inactive)
[57]
  GI50: > 10 µM (inactive)
[48]
  GI50: > 10 µM (inactive)
[6]
  GI50: > 10 µM (inactive)
[49]
  GI50: > 10 µM (inactive)
[50]
  GI50: > 10 µM (inactive)
[52]
  GI50: > 10 µM (inactive)
[54]
  GI50: > 10 µM (inactive)
